Source: paper PMC12771125, “Compounds Reducing Human Sperm Motility as Potential Nonhormonal Contraceptives Identified Using a High-Throughput Phenotypic Screening Platform” (ACS Omega, 2025)
Converted amounts (≈) assume the structure as drawn. Read-outs that look alike come from different tables or passages of the source.

Key:
human sperm = assay: Reduction of sperm motility (RSM) high-throughput phenotypic assay; assay type: cell-based; details: Homo sapiens, reduction of progressive sperm motility relative to control
Protocol: Using our previously established phenotypic human sperm motility screening platform, we screened a large subset (62,621 compounds) of one of our in-house diversity libraries (National Phenotypic Screening Centre (NPSC) Diversity Set) (Figure A,B). Briefly, human sperm are collected, isolated from semen, distributed into 384-well plates with test compounds, time-lapse images of sperm movement are recorded using a high-content imager, and progressive motility parameters are calculated using custom data analysis software. Sperm motility is complicated, and the mechanisms underpinning its regulation are not fully understood. Progressive motility, which is a measurement of the movement of forward progression of sperm, is most closely linked to sperm quality, and the percentage of progressively motile sperm compared to control is therefore the parameter utilized during the work described in this paper. […]
We used an HTS screening platform to assess the motility of live human spermatozoa. The platform and its development are described in detail in Gruber et al. , and summarized below in brief. The platform was used to screen compound libraries specifically focusing on reduction in motility. Interesting compounds were examined in further detail as possible starting points for a medicinal chemistry program. The experimental design is illustrated in Figure .
Donors were local to the Dundee area, over the age of 18, and had no known fertility problems and normal sperm concentration, motility and semen characteristics according to WHO 2021 criteria. Special category personal data for donors, such as ethnic origin, was not recorded in accordance with ethical approval and UK GDPR. Samples were obtained by masturbation, after sexual abstinence of 2–5 days, and delivered to the research laboratory within one h of production. Samples were allowed to liquefy at 37 °C for 15–30 min prior to preparation by discontinuous density gradient centrifugation (DGC). […] A minimum of 3 prepared donor samples were routinely pooled to reduce donor-to-donor variability for primary screening assays. Pooled samples were incubated for 3 h at 37 °C under noncapacitating conditions.
In brief, screening batches of cells were transferred to a robotic platform (HighRes Biosolutions Inc.) and maintained during the screen at 37 °C at 5% CO2. Assay-ready 384-well plates containing compounds were prepared prior to the screen and filled with approximately 10,000 spermatozoa (20 μL) per well using a liquid handling system (MultiDrop Combi; ThermoFisher). These plates were incubated for 10 min prior to imaging. The HTS system utilized a Yokogawa CV7000 Cell Voyager high-throughput microscope to record time-lapse images from 2 positions in each well. An adaptation of a tracking algorithm, Trackpy v0.4.1 was utilized to track individual spermatozoa within each well and obtain kinematic parameters. Within the compound-test plates, DMSO was used as the vehicle control.
All steps were performed as previously described. , In summary, data from every compound well were normalized to those from in-plate DMSO controls (wells containing the same amount of DMSO as compound wells). Two positions were recorded in every well, and the average of those positions was used for calculating % of control (median value/DMSO median) × 100. Each plate contained 16 DMSO control wells. Median curvilinear velocity (VCL) was used as the primary readout for the NPSC Diversity Set screened at 6 μM, and percentage progressive motility (PM) was used for all other libraries screened. Hits from the primary screening were chosen based on the % change compared to the control. In these experiments, an RSM of ≥20% compared to negative controls (DMSO) was chosen as a cutoff for potential progression.
In a screening program of this scale, a significant number of compounds are likely to have a negative effect on sperm motility, but a number will show general toxicity. […]

HepG2 cells = assay: HepG2 cytotoxicity assay (resazurin, 72 h); assay type: cell-based, human; details: Homo sapiens, HepG2, 72 h; read-out: HepG2 pEC50 (converted)
Source text: Our overarching aims for investigating our chemical series and deciding which ones had the potential for further progression were to achieve adequate potency in our motility assay, suitable solubility, and minimal cytotoxicity in HepG2 cells. This third point was often the most challenging, as multiple series had cytotoxicity in HepG2 cells. This observation is perhaps not surprising; many potential targets in sperm cells can also be found in somatic cells. Our cytotoxicity assay is run with an incubation time of 72 h, to give time for gross cytotoxic effects to become apparent.
Compound dilution curves were plated directly using a Labcyte Echo 550 acoustic dispenser (125 nL) in 384-well white clear-bottom plates (Greiner). HepG2 cells (ATCCHepG2 HB-8065) were cultured in minimum essential medium (supplemented with glutamax) with 10% FCS and plated (25 μL) using a WellMate dispenser ([…]) and incubated for 72 h. Doxorubicin was used as a positive control drug. Resazurin was then added to each well at a final concentration of 45 μM, and fluorescence was measured using a PHERAstar LS (BMG Labtech) after 4 h of further incubation (excitation of 528 nm and emission of 590 nm). Raw data were normalized to controls and expressed as % growth.
Figure S2: Concentration-response curves from high throughput HepG2 viability assay. Each compound was tested in duplicate and the curves of each replicate are shown. The reported values in the tables are an average of the 2 pEC50 values obtained. […]
determine 0% effect, positive control used to determine 100% effect).
Hit compounds 1a, 6b and 7a were repurchased from commercial suppliers including enamine and […]

Aqueous solubility = assay type: physicochemical
[1] = 10 min, 10 min incubation, reported <X (neg. log of top concentration) if largest reduction <70%, read-out: RSM pEC50 10 mins (converted)
[2] = 3 h incubation, reported <X if largest reduction <70%, read-out: RSM pEC50 3 hrs (converted)
[3] = 6 h incubation, reported <X if largest reduction <70%, read-out: RSM pEC50 6 hrs (converted)

Row | Compound | EC50 (human sperm; [1]) | EC50 (human sperm; [2]) | EC50 (human sperm; [3]) | EC50 (HepG2 cells) | solubility (Aqueous solubility)
1 | O=C1COC2(CCN(Cc3ccc(F)cc3)CC2)CN1 [Compound 8a, 9-(4-Fluorobenzyl)-1-oxa-4,9-diazaspiro[5.5]undecan-3-one] | 12.6 µM | 2 µM | 0.794 µM | > 100 µM | 
2 | CC(=O)N1CCC2(CCN(Cc3cccc(F)c3)CC2)CC1 [Compound 9b] | > 31.6 µM | > 31.6 µM | > 31.6 µM |  | 
3 | Cc1ccc(CN2CCC3(CC2)CNC(=O)CO3)cc1 [Compound 8g] | > 31.6 µM | > 31.6 µM | > 31.6 µM |  | 
4 | CS(=O)(=O)Nc1cc(F)ccc1Nc1nc(Nc2ccc(C(=O)N3CCOCC3)cc2)ncc1Cl [Compound 2c] | 5.01 µM | 3.16 µM | 3.98 µM | 7.94 µM | 2.3 µM (≈ 1.2 µg/mL)
5 | COc1cc(N2CCOCC2)ccc1Nc1ncc(Cl)c(Nc2ccccc2NS(C)(=O)=O)n1 [Compound 2a, N-(2-((5-Chloro-2-((2-methoxy-4-morpholinophenyl)amino)pyrimidin-4-yl)amino)phenyl)methanesulfonamide, reference compound] | 3.98 µM | 2.51 µM | 2 µM | 3.98 µM | 30 µM (≈ 15.2 µg/mL)
6 | c1ccc(-c2cc(N3CCCCC3)c3ccccc3n2)nc1 [Compound 7a, 4-(Piperidin-1-yl)-2-(pyridin-2-yl)quinoline] | > 25.1 µM | > 25.1 µM | 1.58 µM | > 100 µM | 10 µM (≈ 2.89 µg/mL)
7 | CS(=O)(=O)Nc1cc(F)ccc1Nc1nc(Nc2ccc(CN3CCNCC3)cc2)ncc1Cl [Compound 2e] | 3.98 µM | 2 µM | 1.58 µM | 15.8 µM | 27 µM (≈ 13.7 µg/mL)
8 | Fc1cccc(CN2CCC3(CCNCC3)CC2)c1 [Compound 9d] | > 31.6 µM | > 31.6 µM | > 31.6 µM | 63.1 µM | 
9 | N#Cc1ccc(NC(=O)c2cc(Cl)ccc2O)cc1Cl [Compound 1e] | 2.51 µM |  |  | 5.01 µM | 2.3 µM (≈ 0.706 µg/mL)
10 | Cc1cc(C)nc(-n2nc(C)cc2NC(=O)c2ccccc2)n1 [Compound 6d] | > 31.6 µM | > 31.6 µM | > 31.6 µM | > 100 µM | 15 µM (≈ 4.61 µg/mL)
11 | O=C(Nc1nc(-c2ccccn2)cs1)Nc1ccc(F)cc1F [Compound 3b, 1-(2,4-Difluorophenyl)-3-(4-(pyridin-2-yl)thiazol-2-yl)urea] | > 31.6 µM | > 31.6 µM | 7.94 µM | 7.94 µM | 1.2 µM (≈ 0.399 µg/mL)
12 | O=C1COC2(CCN(Cc3cccnc3)CC2)CN1 [Compound 8c] | > 31.6 µM | 6.31 µM | 1.58 µM |  | 
13 | NC(=O)N1CCC2(CCN(Cc3ccc(F)cc3)CC2)CC1 [Compound 9e] | > 31.6 µM | > 31.6 µM | > 31.6 µM |  | 
14 | N#Cc1ccc(NC(=O)c2cc(Cl)ccc2O)cc1 [Compound 1g] | 5.01 µM |  |  | 2.51 µM | 11 µM (≈ 3 µg/mL)
15 | OC1CCC(Nc2ccnc3cc(Cl)ccc23)CC1 (centres unmarked) [Compound 5f] | > 31.6 µM | > 31.6 µM | > 31.6 µM | > 100 µM | 210 µM (≈ 58.1 µg/mL)
16 | Oc1ccc(Nc2ccnc3cc(Cl)ccc23)cc1CN1CCNCC1 [Compound 5c] | > 31.6 µM | > 31.6 µM | 0.794 µM | 12.6 µM | 
